Measurements from the supplement of paper PMC10883282.
± gives the standard deviation of the averaged measurements.

What was measured:
Experiment in all cases: relative viability vs DMSO control (72 h) (fraction); higher = more viable cells
G401 = tested on: G401
Outline: (§1)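 After seeding at densities set for 80–90% confluence in 384-well plates, sarcoma cell lines waited 24 h before 2.5 µl of serially diluted compound was added. Source plates held 10 mM down to 0.0002 mM. Plates were incubated 72 h at 37 °C with 5% CO2, with 0.1% DMSO vehicle and a 5 µM positive control, and relative viability was taken from ATPLite as percent growth averaged over up to triplicate wells, with 1 set as full and 0 as none.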

SK-LMS-1 = tested on: SK-LMS-1
Outline: as §1

MES-SA = tested on: MES-SA
Outline: as §1

SW872 = tested on: SW872
Outline: as §1

SYO-1 = tested on: SYO-1
Outline: as §1

A204 = tested on: A204
Outline: as §1

SK-ES-1 = tested on: SK-ES-1
Outline: as §1

VA-ES-BJ = tested on: VA-ES-BJ
Outline: as §1

SW684 = tested on: SW684
Outline: as §1

KHOS-NP = tested on: KHOS-NP
Outline: as §1

RD = tested on: RD
Outline: as §1

HS729 = tested on: HS729
Outline: as §1

O=C1NC(=O)[C@@H](c2cn3c4c(cccc24)CCC3)[C@@H]1c1c[nH]c2ccccc12 [Tivantinib]
relative viability (G401; 0.00017 µM): 1 ± 0.029
relative viability (G401; 0.00051 µM): 1.01 ± 0.062
relative viability (G401; 0.00152 µM): 1.03 ± 0.023
relative viability (G401; 0.00457 µM): 1.03 ± 0.033
relative viability (G401; 0.01372 µM): 1.02 ± 0.042
relative viability (G401; 0.04115 µM): 0.982 ± 0.082
relative viability (G401; 0.1235 µM): 1.05 ± 0.015
relative viability (G401; 0.3704 µM): 0.941 ± 0.045
relative viability (G401; 1.111 µM): 0.573 ± 0.03
relative viability (G401; 3.333 µM): 0.534 ± 0.011
relative viability (G401; 10 µM): 0.367 ± 0.025
relative viability (SK-LMS-1; 0.00017 µM): 1 ± 0.021
relative viability (SK-LMS-1; 0.00051 µM): 1.01 ± 0.025
relative viability (SK-LMS-1; 0.00152 µM): 0.972 ± 0.03
relative viability (SK-LMS-1; 0.00457 µM): 1.002 ± 0.01
relative viability (SK-LMS-1; 0.01372 µM): 1 ± 0.04
relative viability (SK-LMS-1; 0.04115 µM): 0.965 ± 0.038
relative viability (SK-LMS-1; 0.1235 µM): 0.887 ± 0.016
relative viability (SK-LMS-1; 0.3704 µM): 0.5799 ± 0.0027
relative viability (SK-LMS-1; 1.111 µM): 0.497 ± 0.023
relative viability (SK-LMS-1; 3.333 µM): 0.385 ± 0.022
relative viability (SK-LMS-1; 10 µM): 0.301 ± 0.013
relative viability (MES-SA; 0.00017 µM): 0.9028 ± 0.0089
relative viability (MES-SA; 0.00051 µM): 0.908 ± 0.012
relative viability (MES-SA; 0.00152 µM): 0.92 ± 0.015
relative viability (MES-SA; 0.00457 µM): 0.919 ± 0.04
relative viability (MES-SA; 0.01372 µM): 0.914 ± 0.057
relative viability (MES-SA; 0.04115 µM): 0.888 ± 0.037
relative viability (MES-SA; 0.1235 µM): 0.919 ± 0.037
relative viability (MES-SA; 0.3704 µM): 0.406 ± 0.011
relative viability (MES-SA; 1.111 µM): 0.285 ± 0.009
relative viability (MES-SA; 3.333 µM): 0.205 ± 0.0074
relative viability (MES-SA; 10 µM): 0.1134 ± 0.00098
relative viability (SW872; 0.00017 µM): 0.993 ± 0.016
relative viability (SW872; 0.00051 µM): 0.973 ± 0.017
relative viability (SW872; 0.00152 µM): 1 ± 0.021
relative viability (SW872; 0.00457 µM): 0.996 ± 0.051
relative viability (SW872; 0.01372 µM): 0.979 ± 0.037
relative viability (SW872; 0.04115 µM): 1.008 ± 0.0033
relative viability (SW872; 0.1235 µM): 0.967 ± 0.013
relative viability (SW872; 0.3704 µM): 0.933 ± 0.021
relative viability (SW872; 1.111 µM): 0.473 ± 0.063
relative viability (SW872; 3.333 µM): 0.485 ± 0.038
relative viability (SW872; 10 µM): 0.467 ± 0.033
relative viability (SYO-1; 0.00017 µM): 0.934 ± 0.055
relative viability (SYO-1; 0.00051 µM): 0.928 ± 0.016
relative viability (SYO-1; 0.00152 µM): 0.95 ± 0.047
relative viability (SYO-1; 0.00457 µM): 0.924 ± 0.033
relative viability (SYO-1; 0.01372 µM): 0.911 ± 0.041
relative viability (SYO-1; 0.04115 µM): 0.894 ± 0.045
relative viability (SYO-1; 0.1235 µM): 0.861 ± 0.041
relative viability (SYO-1; 0.3704 µM): 0.716 ± 0.068
relative viability (SYO-1; 1.111 µM): 0.327 ± 0.019
relative viability (SYO-1; 3.333 µM): 0.271 ± 0.024
relative viability (SYO-1; 10 µM): 0.28 ± 0.019
relative viability (A204; 0.00017 µM): 1.08 ± 0.042
relative viability (A204; 0.00051 µM): 1.05 ± 0.067
relative viability (A204; 0.00152 µM): 1.09 ± 0.078
relative viability (A204; 0.00457 µM): 1.11 ± 0.058
relative viability (A204; 0.01372 µM): 1.1 ± 0.079
relative viability (A204; 0.04115 µM): 1.07 ± 0.058
relative viability (A204; 0.1235 µM): 1.06 ± 0.052
relative viability (A204; 0.3704 µM): 1.05 ± 0.018
relative viability (A204; 1.111 µM): 0.455 ± 0.02
relative viability (A204; 3.333 µM): 0.439 ± 0.051
relative viability (A204; 10 µM): 0.331 ± 0.016
relative viability (SK-ES-1; 0.00017 µM): 1.01 ± 0.074
relative viability (SK-ES-1; 0.00051 µM): 1.04 ± 0.028
relative viability (SK-ES-1; 0.00152 µM): 1 ± 0.076
relative viability (SK-ES-1; 0.00457 µM): 1.08 ± 0.034
relative viability (SK-ES-1; 0.01372 µM): 1.03 ± 0.03
relative viability (SK-ES-1; 0.04115 µM): 1.02 ± 0.092
relative viability (SK-ES-1; 0.1235 µM): 0.9862 ± 0.0084
relative viability (SK-ES-1; 0.3704 µM): 0.645 ± 0.025
relative viability (SK-ES-1; 1.111 µM): 0.0656 ± 0.0071
relative viability (SK-ES-1; 3.333 µM): 0.0193 ± 0.0038
relative viability (SK-ES-1; 10 µM): 0.0196 ± 0.00098
relative viability (VA-ES-BJ; 0.00017 µM): 1.01 ± 0.043
relative viability (VA-ES-BJ; 0.00051 µM): 1.03 ± 0.039
relative viability (VA-ES-BJ; 0.00152 µM): 1.02 ± 0.052
relative viability (VA-ES-BJ; 0.00457 µM): 1.03 ± 0.053
relative viability (VA-ES-BJ; 0.01372 µM): 1.01 ± 0.075
relative viability (VA-ES-BJ; 0.04115 µM): 1.01 ± 0.047
relative viability (VA-ES-BJ; 0.1235 µM): 0.991 ± 0.092
relative viability (VA-ES-BJ; 0.3704 µM): 0.76 ± 0.025
relative viability (VA-ES-BJ; 1.111 µM): 0.464 ± 0.093
relative viability (VA-ES-BJ; 3.333 µM): 0.439 ± 0.067
relative viability (VA-ES-BJ; 10 µM): 0.397 ± 0.013
relative viability (SW684; 0.00017 µM): 1.15 ± 0.0055
relative viability (SW684; 0.00051 µM): 1.119 ± 0.0051
relative viability (SW684; 0.00152 µM): 1.16 ± 0.029
relative viability (SW684; 0.00457 µM): 1.123 ± 0.0081
relative viability (SW684; 0.01372 µM): 1.09 ± 0.058
relative viability (SW684; 0.04115 µM): 1.13 ± 0.031
relative viability (SW684; 0.1235 µM): 1.1 ± 0.036
relative viability (SW684; 0.3704 µM): 0.961 ± 0.03
relative viability (SW684; 1.111 µM): 0.783 ± 0.017
relative viability (SW684; 3.333 µM): 0.601 ± 0.012
relative viability (SW684; 10 µM): 0.636 ± 0.0072
relative viability (KHOS-NP; 0.00017 µM): 1.036 ± 0.0052
relative viability (KHOS-NP; 0.00051 µM): 1.04 ± 0.014
relative viability (KHOS-NP; 0.00152 µM): 1.036 ± 0.0075
relative viability (KHOS-NP; 0.00457 µM): 1.03 ± 0.011
relative viability (KHOS-NP; 0.01372 µM): 1.04 ± 0.02
relative viability (KHOS-NP; 0.04115 µM): 1.04 ± 0.032
relative viability (KHOS-NP; 0.1235 µM): 1.04 ± 0.046
relative viability (KHOS-NP; 0.3704 µM): 1.05 ± 0.025
relative viability (KHOS-NP; 1.111 µM): 0.541 ± 0.03
relative viability (KHOS-NP; 3.333 µM): 0.487 ± 0.054
relative viability (KHOS-NP; 10 µM): 0.374 ± 0.019
relative viability (RD; 0.00017 µM): 1.05 ± 0.01
relative viability (RD; 0.00051 µM): 1.09 ± 0.049
relative viability (RD; 0.00152 µM): 1.09 ± 0.036
relative viability (RD; 0.00457 µM): 1.1 ± 0.049
relative viability (RD; 0.01372 µM): 1.12 ± 0.02
relative viability (RD; 0.04115 µM): 1.04 ± 0.028
relative viability (RD; 0.1235 µM): 1.04 ± 0.042
relative viability (RD; 0.3704 µM): 0.81 ± 0.027
relative viability (RD; 1.111 µM): 0.371 ± 0.028
relative viability (RD; 3.333 µM): 0.219 ± 0.01
relative viability (RD; 10 µM): 0.267 ± 0.0046
relative viability (HS729; 0.00017 µM): 0.901 ± 0.067
relative viability (HS729; 0.00051 µM): 0.924 ± 0.024
relative viability (HS729; 0.00152 µM): 0.917 ± 0.065
relative viability (HS729; 0.00457 µM): 0.899 ± 0.041
relative viability (HS729; 0.01372 µM): 0.916 ± 0.06
relative viability (HS729; 0.04115 µM): 0.865 ± 0.04
relative viability (HS729; 0.1235 µM): 0.864 ± 0.044
relative viability (HS729; 0.3704 µM): 0.862 ± 0.035
relative viability (HS729; 1.111 µM): 0.599 ± 0.041
relative viability (HS729; 3.333 µM): 0.621 ± 0.017
relative viability (HS729; 10 µM): 0.564 ± 0.031
